Reference: PMC9934367, “Functional impact of subunit composition and compensation on Drosophila melanogaster nicotinic receptors–targets of neonicotinoids” (PLOS Genetics, 2023)

Test system: D. melanogaster nAChRs
Experiment: Comparison of agonist activity between nAChRs expressed in X. laevis oocytes (one-way ANOVA, Kruskal-Wallis)
Assay type: cell-based
Method: We minimised the use of X. laevis according to the UK Animals (Scientific Procedures) Act, 1986. […] Oocytes were defolliculated after collagenase treatment in Ca^2+-free standard oocyte saline (Ca^2+-free SOS). cRNAs of the nAChR subunits and co-factors mixed at a concentration of 0.1 mg/mL was injected into oocytes at a volume of 50 nL. Then the oocytes were incubated in the incubation medium (SOS supplemented with sodium pyruvate (Nacalai Tesque, #13058–12), penicillin-streptomycin (MilliporeSigma, #P4333), gentamycin (Nacalai Tesque, #16672–04), and 4% horse serum (Thermo Fisher Scientific, #26050–070) for 3−4 days prior to electrophysiology.
Each defolliculated X. laevis oocyte was secured in a Perspex recording chamber and perfused with the standard oocyte saline (SOS) containing 0.5 μM atropine (SOSA) at a flow rate of 7−10 mL/min [48]. Two glass electrodes filled with 2 M KCl were impaled into each oocyte and the membrane potential was clamped at -100 mV. […] The peak amplitude of the response was measured and analysed by pCLAMP (Molecular Devices, USA).
Y=Imax/1+10^(logEC50‐X)nH
Where Y is the normalised response, X is log[ligand (M)], EC50 is the half maximal concentration (M), Imax is the maximum normalised response and nH is the Hill coefficient.
Prism software was employed for the statistical analyses. […] One-way ANOVA was used to analyse the differences of the ligand agonist activity in terms of pEC50 on the various nAChRs expressed in X. laevis as well as data obtained with D. melanogaster larvae and adults.

## CC(=O)OCC[N+](C)(C)C [ACh, acetylcholine]
Dα1/Dα2/Dα3/Dβ1/Dβ2 vs. Dα1/Dα2/Dβ1/Dβ2/Dβ3
  Difference of pEC50 values, nAChRs compared: 0.07
Dα1/Dα2/Dα3/Dβ1/Dβ2 vs. Dα1/Dα3/Dα4/Dβ1/Dβ2
  Difference of pEC50 values, nAChRs compared: -0.30
Dα1/Dα2/Dα3/Dβ1/Dβ2 vs. Dα1/Dα3/Dβ1/Dβ2/Dβ3
  Difference of pEC50 values, nAChRs compared: -1.34
Dα1/Dα2/Dα3/Dβ1/Dβ2 vs. Dα2/Dα3/Dα4/Dβ1/Dβ2
  Difference of pEC50 values, nAChRs compared: -1.00
Dα1/Dα2/Dα3/Dβ1/Dβ2 vs. Dα2/Dα3/Dβ1/Dβ2/Dβ3
  Difference of pEC50 values, nAChRs compared: -1.52
Dα1/Dα2/Dα3/Dβ1 vs. Dα1/Dα2/Dα3/Dβ1/Dβ2
  Difference of pEC50 values: 0.94
Dα1/Dα2/Dα3/Dβ1 vs. Dα1/Dα2/Dβ1/Dβ2
  Difference of pEC50 values: 0.51
Dα1/Dα2/Dα3/Dβ1 vs. Dα1/Dα3/Dβ1/Dβ2
  Difference of pEC50 values: -1.00
Dα1/Dα2/Dα3/Dβ1 vs. Dα1/Dβ1/Dβ2
  Difference of pEC50 values: 0.68
Dα1/Dα2/Dα3/Dβ1 vs. Dα3/Dβ1/Dβ2
  Difference of pEC50 values: -0.76
Dα1/Dα2/Dβ1/Dβ2 vs. Dα2/Dα3/Dβ1/Dβ2
  Difference of pEC50 values: -1.07
Dα1/Dα2/Dβ1 vs. Dα1/Dα2/Dα3/Dβ1
  Difference of pEC50 values: -1.29
Dα1/Dα2/Dβ1 vs. Dα1/Dα2/Dα3/Dβ1/Dβ2
  Difference of pEC50 values: -0.35
Dα1/Dα2/Dβ1 vs. Dα1/Dα2/Dβ1/Dβ2
  Difference of pEC50 values: -0.78
Dα1/Dα2/Dβ1 vs. Dα1/Dα3/Dβ1/Dβ2
  Difference of pEC50 values: -2.29
Dα1/Dα2/Dβ1 vs. Dα2/Dα3/Dβ1
  Difference of pEC50 values: -1.31
Dα1/Dα2/Dβ1 vs. Dα2/Dα3/Dβ1/Dβ2
  Difference of pEC50 values: -1.85
Dα1/Dα2/Dβ1 vs. Dα3/Dβ1/Dβ2
  Difference of pEC50 values: -2.05
Dα1/Dα3/Dβ1/Dβ2 vs. Dα1/Dα2/Dα3/Dβ1/Dβ2
  Difference of pEC50 values: 1.94
Dα1/Dα3/Dβ1/Dβ2 vs. Dα1/Dα2/Dβ1/Dβ2
  Difference of pEC50 values: 1.51
Dα1/Dα3/Dβ1 vs. Dα1/Dα2/Dα3/Dβ1/Dβ2
  Difference of pEC50 values: 1.36
Dα1/Dα3/Dβ1 vs. Dα1/Dα2/Dβ1
  Difference of pEC50 values: 1.71
Dα1/Dα3/Dβ1 vs. Dα1/Dα2/Dβ1/Dβ2
  Difference of pEC50 values: 0.93
Dα1/Dα3/Dβ1 vs. Dα1/Dβ1/Dβ2
  Difference of pEC50 values: 1.10
Dα1/Dα3/Dβ1 vs. Dα2/Dα3/Dβ1
  Difference of pEC50 values: 0.40
Dα1/Dα3/Dβ1 vs. Dα3/Dβ1/Dβ2
  Difference of pEC50 values: -0.34
Dα1/Dβ1/Dβ2 vs. Dα1/Dα2/Dα3/Dβ1/Dβ2
  Difference of pEC50 values: 0.26
Dα1/Dβ1/Dβ2 vs. Dα1/Dα3/Dβ1/Dβ2
  Difference of pEC50 values: -1.68
Dα1/Dβ1/Dβ2 vs. Dα2/Dα3/Dβ1/Dβ2
  Difference of pEC50 values: -1.24
Dα1/Dβ1/Dβ2 vs. Dα3/Dβ1/Dβ2
  Difference of pEC50 values: -1.44
Dα1/Dβ1 vs. Dα1/Dα2/Dα3/Dβ1/Dβ2
  Difference of pEC50 values: 0.75
Dα1/Dβ1 vs. Dα1/Dα2/Dβ1
  Difference of pEC50 values: 1.10
Dα1/Dβ1 vs. Dα1/Dα2/Dβ1/Dβ2
  Difference of pEC50 values: 0.32
Dα1/Dβ1 vs. Dα1/Dα3/Dβ1/Dβ2
  Difference of pEC50 values: -1.19
Dα1/Dβ1 vs. Dα1/Dβ1/Dβ2
  Difference of pEC50 values: 0.49
Dα1/Dβ1 vs. Dα2/Dα3/Dβ1
  Difference of pEC50 values: -0.21
Dα1/Dβ1 vs. Dα2/Dα3/Dβ1/Dβ2
  Difference of pEC50 values: -0.75
Dα1/Dβ1 vs. Dα3/Dβ1
  Difference of pEC50 values: -0.90
Dα1/Dβ1 vs. Dα3/Dβ1/Dβ2
  Difference of pEC50 values: -0.95
Dα2/Dα3/Dβ1/Dβ2 vs. Dα1/Dα2/Dα3/Dβ1/Dβ2
  Difference of pEC50 values: 1.50
Dα2/Dα3/Dβ1 vs. Dα1/Dα2/Dα3/Dβ1
  Difference of pEC50 values: 0.02
Dα2/Dα3/Dβ1 vs. Dα1/Dα2/Dα3/Dβ1/Dβ2
  Difference of pEC50 values: 0.96
Dα2/Dα3/Dβ1 vs. Dα1/Dα3/Dβ1/Dβ2
  Difference of pEC50 values: -0.98
Dα2/Dα3/Dβ1 vs. Dα1/Dβ1/Dβ2
  Difference of pEC50 values: 0.70
Dα2/Dα3/Dβ1 vs. Dα3/Dβ1/Dβ2
  Difference of pEC50 values: -0.74
Dα3/Dβ1/Dβ2 vs. Dα1/Dα2/Dα3/Dβ1/Dβ2
  Difference of pEC50 values: 1.70
Dα3/Dβ1/Dβ2 vs. Dα1/Dα2/Dβ1/Dβ2
  Difference of pEC50 values: 1.27
Dα3/Dβ1/Dβ2 vs. Dα1/Dα3/Dβ1/Dβ2
  Difference of pEC50 values: -0.24
Dα3/Dβ1/Dβ2 vs. Dα2/Dα3/Dβ1/Dβ2
  Difference of pEC50 values: 0.20
Dα3/Dβ1 vs. Dα1/Dα2/Dα3/Dβ1
  Difference of pEC50 values: 0.71
Dα3/Dβ1 vs. Dα1/Dα2/Dα3/Dβ1/Dβ2
  Difference of pEC50 values: 1.65
Dα3/Dβ1 vs. Dα1/Dα2/Dβ1
  Difference of pEC50 values: 2.00
Dα3/Dβ1 vs. Dα1/Dα2/Dβ1/Dβ2
  Difference of pEC50 values: 1.22
Dα3/Dβ1 vs. Dα1/Dα3/Dβ1
  Difference of pEC50 values: 0.29
Dα3/Dβ1 vs. Dα1/Dα3/Dβ1/Dβ2
  Difference of pEC50 values: -0.29
Dα3/Dβ1 vs. Dα1/Dβ1/Dβ2
  Difference of pEC50 values: 1.39
Dα3/Dβ1 vs. Dα2/Dα3/Dβ1
  Difference of pEC50 values: 0.69
Dα3/Dβ1 vs. Dα3/Dβ1/Dβ2
  Difference of pEC50 values: -0.05
